In PMC7226839, “Modulation of STAT3 Signaling, Cell Redox Defenses and Cell Cycle Checkpoints by β-Caryophyllene in Cholangiocarcinoma Cells: Possible Mechanisms Accounting for Doxorubicin Chemosensitization and Chemoprevention” (Cells, 2020):
Structures can show the parent of a compound that is named as a salt.

Columns and labels:
[1] = system: H69 noncancerous cholangiocytes; test: Cell cycle analysis (PI flow cytometry); type: cell-based; conditions: H69, 24 h
Experimental: Analysis of cell cycle progression was performed by applying a one parameter flow cytometric method, in which cell cycle distribution was evaluated on the basis of DNA content. Briefly, after treatments, the harvested cells (about 1 × 10^6 cells) were fixed in ice cold 70% ethanol and stored for at least 2 h at 4 °C. Thereafter, the ethanol-suspended cells were separated by centrifugation, rinsed in PBS, then resuspended in a propidium iodide (PI) staining solution, containing 0.1% v/v Triton X-100, 10 μg/mL PI and 100 μg/mL DNase-free RNase A in PBS and stored at 4 °C in the dark for at least 30 min. For each sample, the mean fluorescence of PI (maximum excitation of PI bound to DNA at 536 nm; emission at 617 nm) in 50,000 cells was measured using a BD Accuri^TM C6 flow cytometer FL2 channel (BD Biosciences, Milan, Italy) and deconvolution of the DNA content frequency histograms, to estimate the proportions of cells in the respective phases of the cycle, was made by Modfit 4.1 software (Verity Software House, Topsham, ME, USA).

[2] = system: Mz-ChA-1 cholangiocarcinoma cells; test: Annexin-V-Cy3/CFDA flow cytometry (apoptotic and viable cells); type: cell-based, human; conditions: for inhibition of viable cells (CF fluorescence): Mz-ChA-1, 2 h and 24 h, maximum
Experimental: Apoptosis extent was evaluated by Annexin-V staining (Annexin V Apoptosis detection kit, Santa Cruz Biotechnology, DBA, Milan, Italy), which is known to specifically binds phosphatidylserine, a […] which is normally embedded in the inner leaflet of plasma membrane and externalized during apoptosis, as a result of the membrane changes. Therefore, apoptotic cells can be directly detected through their staining with the fluorochrome-conjugated Annexin V. The analysis was performed by both fluorescence microscopy and flow cytometry in order to both visualize the event and to achieve a quick and accurate quantification of apoptotic cells.
For flow cytometry analysis, the cells (1 × 10^6 cells) were grown in 6-well plates, treated with β-caryophyllene (50 µM) and doxorubicin (20 µM), alone and in combination for the required time exposure, then collected by trypsinization and resuspended in PBS in the presence of the fluorochrome Annexin-V-Cy3 (4 μg/mL in cell suspension). In order to detect viable cells, the nonfluorescent probe carboxyfluorescein diacetate (CFDA; 2 μg/mL in cell suspension), hydrolyzed in living cells by esterases to its fluorescent carboxyfluorescein metabolite (CF), was included too. For each sample, the mean fluorescence of Annexin-V-Cy3 (excitation/emission at 543/570 nm, respectively) and CF (excitation/emission at 492/514 nm, respectively) in 50,000 cells was measured using a BD Accuri^TM C6 flow cytometer, FL-2 and FL-1 channels respectively (BD Biosciences, Milan, Italy). Although standard flow cytometry apoptosis assays use Annexin V-FITC, we chosen the conjugate with Cy3 in order to avoid the overlapping in the excitation wavelength of annexin V-FITC and CF, which could interfere with the analysis. Cells undergoing apoptosis were also sorted by their typical forward- and side scatter (FSC-SSC) pattern, i.e., increased SSC and decreased FSC, respect to the viable cells. Multiparameter analysis and gating of forward and side scatter as well as fluorescence detection were performed using a BD Accuri^TM C6 Software version 1.0.264.21 (BD Biosciences, Milan, Italy).

[3] = system: γH2AX in Mz-ChA-1 cholangiocarcinoma cells; test: Western blotting of phosphorylated H2AX (Ser139); type: cell-based, human; conditions: for increase in γH2AX levels compared the control: doxorubicin 20 µM
Experimental: (§2) To perform the analysis, the cells were seeded in 6-well plates, then subjected to the treatment with β-caryophyllene (50 µM) and doxorubicin (20 µM), alone and in combination, for the required time exposure, then harvested by centrifugation and washed in PBS. A lysis buffer, containing SDS (2% w/w), Tris-hydrochloride (20 mM; pH 7.4), urea (2 M), glycerol (10% w/w), sodium orthovanadate (2 mM), DTT (10 mM) and a protease inhibitors cocktail (1:100 dilution) was used to achieve the cell protein separation. The separated proteins were resolved by SDS-PAGE 10% TGX FastCast™ Acrylamide gel (BioRad, Segrate, Italy) and transferred on PVDF membranes (BioRad, Segrate, Italy) by using a Trans-Blot® Turbo™ Transfer System (BioRad, Segrate, Italy). The membranes were blocked with a 0.2% w/v I-block (Thermo Fisher Scientific, Rodano, Italy) in Tris-buffered saline containing 0.05% Tween-20 (TBS-T), then stained with the desired primary antibodies. […] After rinsing three times in TBS-T to remove unbound primary antibody, the membranes were incubated for an additional hour with the appropriate horseradish peroxidase- or alkaline phosphatase-conjugated secondary antibody (Jackson ImmunoResearch, Pero, Italy). […] Each experiment was performed at least in three replicates.

[4] = system: ROS in H69 noncancerous cholangiocytes; test: Intracellular ROS determination (DCFH-DA); type: cell-based; conditions: H69, 24 h, β-caryophyllene 50 µM, doxorubicin 20 µM
Experimental: (§1) To perform the assay, the cells, seeded in 6-well plates (1 × 10^6 cells/well), were treated with the tested substances (β-caryophyllene, 50 µM; doxorubicin, 20 µM) for the required time exposure, then the ROS levels were measured in the pellets by the 2,7-dichlorofluorescein diacetate assay (DCFH-DA), as previously reported. […] In each experiment, a vehicle control, corresponding to a basal ROS level, were included too. For all the treatments, the mean DCF fluorescence of 50,000 cells was determined by a BD Accuri^TM C6 Software version 1.0.264.21 (BD Biosciences, Milan, Italy).

[5] = system: ROS in Mz-ChA-1 cholangiocarcinoma cells; test: Intracellular ROS determination (DCFH-DA); type: cell-based, human; conditions: β-caryophyllene 50 µM, doxorubicin 20 µM
Experimental: as §1

[6] = system: phospho(Tyr705)-STAT3 in H69 cholangiocytes; test: Western blotting of phospho(Tyr705)-STAT3; type: cell-based; conditions: for enhancement of basal phospho(Tyr705)-STAT3 expression: doxorubicin 20 µM
Experimental: as §2

## COc1cccc2c1C(=O)c1c(O)c3c(c(O)c1C2=O)C[C@@](O)(C(=O)CO)C[C@@H]3O[C@H]1C[C@H](N)[C@H](O)[C@H](C)O1 [Doxorubicin, doxorubicin hydrochloride]
[1]; doxorubicin 20 µM
  increase of cell accumulation in S-phase compared the control: ~1.8 fold
  reduction of G0/G1 phase: ≥ 30 fold
[2]
  inhibition of viable cells (CF fluorescence): up to 1.5 fold
[2]; Mz-ChA-1, 24 h
  increase of apoptotic rate vs the basal rate in the control: ~3 fold
[3]; Mz-ChA-1, 2 h
  increase in γH2AX levels compared the control: about 60 fold
[3]; Mz-ChA-1, 24 h
  increase in γH2AX levels compared the control: ~140 fold
[4]
  enhancement in ROS amount compared the control: at least 3 fold
[5]; Mz-ChA-1, 2 h
  increase of ROS levels with respect to the control: ~7 fold
[5]; Mz-ChA-1, 24 h
  increase of ROS levels with respect to the control: ~4 fold
[6]; H69, 2 h
  enhancement of basal phospho(Tyr705)-STAT3 expression: ~6 fold
[6]; H69, 24 h
  enhancement of basal phospho(Tyr705)-STAT3 expression: ~10 fold

## C=C1CC/C=C(\C)CC[C@@H]2[C@@H]1CC2(C)C [β-Caryophyllene, β-caryophyllene]
[1]; β-caryophyllene 50 µM
  reduction of G2/M phase vs. control: about 1.4 fold
[2]
  inhibition of viable cells (CF fluorescence): about 1.2 fold
[2]; Mz-ChA-1, β-caryophyllene 50 µM
  effect on basal apoptosis (annexin-V-Cy3): did not affected the basal apoptosis
[3]; Mz-ChA-1, 50 µM, 2 h and 24 h
  effect on γH2AX levels: null effects
[4]
  enhancement in ROS amount compared the control: 1.3 fold
[5]; Mz-ChA-1, 2 h
  increase of ROS levels with respect to the control: about 1.6 fold
[5]; Mz-ChA-1, 24 h
  increase of ROS levels with respect to the control: ~1.2 fold
[6]; H69, β-caryophyllene 50 µM alone
  effect on phospho(Tyr705)-STAT3 expression: did not affected the protein expression
